Data reported in patent publication US8247610B2, “Amine linked modulators of γ-secretase” (Janssen Pharmaceutica N.V., priority 2007, dated 2012).

Molecular target: T1, γ-secretase (Homo sapiens, UniProt P49768)
T1 construct: endogenous in cells; host or cells: SKNBE2 cells carrying APP 695 wild type
Assay: Screening for γ-secretase-modulating activity in SKNBE2 cells carrying the APP 695 wild type
Format: cell-based
Details: SKNBE2 cells carrying APP 695 wild type
Experimental: Screening of the Compounds of the Invention for γ-Secretase-Modulating Activity
Screening was carried out using SKNBE2 cells carrying the APP 695—wild type, grown in DMEM/NUT-mix F12 (HAM) provided by Gibco (cat no. 31330-38) containing 5% Serum/Fe supplemented with 1% non-essential amino acids.
Cells were grown to near confluency.
The screening was performed using the assay as described in Citron et al (1997) Nature Medicine 3: 67.

Structure (SMILES)	EC50 [nM]	inhibition at 0.3 µM [%]
CC(C)CCN(Cc1ccc(C(C)(C)C)cc1)c1cc(-c2ccc(C(F)(F)F)cc2)cc(C(CC(C)C)C(=O)O)c1 (stereo not shown) [Compound 39, 2-{5-[(4-tert-Butyl-benzyl)-(3-methyl-butyl)-amino]-4′-trifluoromethyl-biphenyl-3-yl}-4-methyl-pentanoic acid]	580	–
CC(C)CC(C(=O)O)c1cc(-c2ccc(C(F)(F)F)cc2)cc(N2CCCc3ccc(C(F)(F)F)cc32)c1 (stereo not shown) [Compound 26, 4-Methyl-2-[4′-trifluoromethyl-5-(7-trifluoromethyl-3,4-dihydro-2H-quinolin-1-yl)-biphenyl-3-yl]-pentanoic acid]	360	–
CC(C)CCN(Cc1cc(-c2ccc(C(F)(F)F)cc2)cc(C(CC(C)C)C(=O)O)c1)Cc1ccc(F)cc1C(F)(F)F (stereo not shown) [Compound 60, 2-(5-{[(4-Fluoro-2-trifluoromethyl-benzyl)-(3-methyl-butyl)-amino]-methyl}-4′-trifluoromethyl-biphenyl-3-yl)-4-methyl-pentanoic acid]	300	–
CC(C)CC(C(=O)O)c1cc(-c2ccc(Cl)c(C(F)(F)F)c2)cc(N(C)c2cc(C(F)(F)F)cc(C(F)(F)F)c2)c1 (stereo not shown) [Compound 27, 2-[4′-Chloro-5-(N-[3,5-bis-(trifluoromethyl)phenyl]-N-methylamino)-3′-trifluoromethyl-biphenyl-3-yl]-4-methyl-pentanoic acid]	480	–
CC(C)CCN(Cc1ccc(C(F)(F)F)cc1)c1cc(-c2ccc(C(F)(F)F)cc2)cc(C(CC(C)C)C(=O)O)c1 (stereo not shown) [Compound 45, 4-Methyl-2-{5-[(3-methyl-butyl)-(4-trifluoromethyl-benzyl)-amino]-4′-trifluoromethyl-biphenyl-3-yl}-pentanoic acid]	580	–
CC(C)CC(C(=O)O)c1cc(-c2ccc(C(F)(F)F)cc2)cc(N(C)c2cc(C(F)(F)F)ccc2C(F)(F)F)c1 (stereo not shown) [Example 12, 2-{5-[(2,5-Bis-trifluoromethyl-phenyl)-methyl-amino]-4′-trifluoromethyl-biphenyl-3-yl}-4-methyl-pentanoic acid]	160	–
CC(C)CCN(Cc1cc(-c2ccc(C(F)(F)F)cc2)cc([C@@H](CC(C)C)C(=O)O)c1)c1ccc(C(F)(F)F)cc1 [Compound 63, 4-Methyl-2-(5-{[(3-methyl-butyl)-(4-trifluoromethyl-phenyl)-amino]-methyl}-4′-trifluoromethyl-biphenyl-3-yl)-pentanoic acid]	250	–
CC(C)CCC(Nc1cc(-c2ccc(C(F)(F)F)cc2)cc(C(CC(C)C)C(=O)O)c1)c1cc(F)c(F)c(F)c1 (stereo not shown) [Compound 38, 4-Methyl-2-{5-[4-methyl-1-(3,4,5-trifluoro-phenyl)-pentylamino]-4′-trifluoromethyl-biphenyl-3-yl}-pentanoic acid]	230	–
CC(C)C[C@@H](C(=O)O)c1cc(NCc2ccc(OC(F)(F)F)cc2)cc(-c2ccc(C(F)(F)F)cc2)c1 [Compound 41, 4-Methyl-2-[5-(4-trifluoromethoxy-benzylamino)-4′-trifluoromethyl-biphenyl-3-yl]-pentanoic acid]	–	0
CC(C)CC(C(=O)O)c1cc(-c2ccc(C(F)(F)F)cc2)cc(N(C)c2ccc(Cl)c(C(F)(F)F)c2)c1 (stereo not shown) [Example 9, 2-{5-[(4-Chloro-3-trifluoromethyl-phenyl)-methyl-amino]-4′-trifluoromethyl-biphenyl-3-yl}-4-methyl-pentanoic acid]	330	–
CC(C)CCN(Cc1cc(-c2ccc(C(F)(F)F)cc2)cc(C(CC(C)C)C(=O)O)c1)Cc1cc(F)c(F)c(F)c1 (stereo not shown) [Compound 54, 4-Methyl-2-(5-{[(3-methyl-butyl)-(3,4,5-trifluoro-benzyl)-amino]-methyl}-4′-trifluoromethyl-biphenyl-3-yl)-pentanoic acid]	270	–
CC(C)CCN(c1ccc(C(F)(F)F)cc1)c1cc(-c2ccc(C(F)(F)F)cc2)cc(C(CC(C)C)C(=O)O)c1 (stereo not shown) [Example 20, 4-Methyl-2-{5-[(3-methyl-butyl)-(4-trifluoromethyl-phenyl)-amino]-4′-trifluoromethyl-biphenyl-3-yl}-pentanoic acid]	170	–
CC(C)CCC(Nc1cc(CC(=O)O)cc(-c2ccc(C(F)(F)F)cc2)c1)c1ccc(C(F)(F)F)cc1 (stereo not shown) [Compound 32]	–	25
CC(C)C[C@@H](C(=O)O)c1cc(NCc2ccc(C#N)cc2)cc(-c2ccc(C(F)(F)F)cc2)c1 [Compound 47, (R) 2-[5-(4-Cyano-benzylamino)-4′-trifluoromethyl-biphenyl-3-yl]-4-methyl-pentanoic acid]	–	0
CC(C)CCN(Cc1cc(CC(=O)O)cc(-c2ccc(C(F)(F)F)cc2)c1)Cc1ccc(Cl)c(F)c1 [Compound 57, (5-{[(4-Chloro-3-fluoro-benzyl)-(3-methyl-butyl)-amino]-methyl}-4′-trifluoromethyl-biphenyl-3-yl)-acetic acid]	–	11
CC(C)CCC(Nc1cc(CC(=O)O)cc(-c2ccc(C(F)(F)F)cc2)c1)c1cc(F)cc(F)c1 (stereo not shown) [Compound 33]	–	11
CC(C)CCN(Cc1cc(-c2ccc(C(F)(F)F)cc2)cc([C@@H](CC(C)C)C(=O)O)c1)Cc1ccc(F)c(F)c1 (stereo in doubt) [Example 5, 2-(5-{[(3,4-Difluoro-benzyl)-(3-methyl-butyl)-amino]-methyl}-4′-trifluoromethyl-biphenyl-3-yl)-4-methyl-pentanoic acid]	65	–
CC(C)CCC(Nc1cc(-c2ccc(C(F)(F)F)cc2)cc(C(CC(C)C)C(=O)O)c1)c1cc(F)cc(F)c1 (stereo not shown) [Compound 29, 2-{5-[1-(3,5-Difluoro-phenyl)-4-methyl-pentylamino]-4′-trifluoromethyl-biphenyl-3-yl}-4-methyl-pentanoic acid]	300	–
CC(C)CC(C(=O)O)c1cc(-c2ccc(C(F)(F)F)cc2)cc(N(C)c2ccc(Cl)cc2)c1 (single isomer, unassigned) [Example 22, (S*)2-{5-[(4-Chloro-phenyl)-methyl-amino]-4′-trifluoromethyl-biphenyl-3-yl}-4-methyl-pentanoic acid]	2150	–
CC(C)C[C@@H](C(=O)O)c1cc(NCc2cc(F)cc(F)c2)cc(-c2ccc(C(F)(F)F)cc2)c1 [Compound 43, (R) 2-[5-(3,5-Difluoro-benzylamino)-4′-trifluoromethyl-biphenyl-3-yl]-4-methyl-pentanoic acid]	–	0

Second part, the molecule after the results:

EC50 [nM]	inhibition at 0.3 µM [%]	Structure (SMILES)
220	–	CC(C)CCN(Cc1cc(C(F)(F)F)cc(C(F)(F)F)c1)c1cc(-c2ccc(C(F)(F)F)cc2)cc([C@@H](CC(C)C)C(=O)O)c1 [Compound 49, (R) 2-{5-[(3,5-Bis-trifluoromethyl-benzyl)-(3-methyl-butyl)-amino]-4′-trifluoromethyl-biphenyl-3-yl}-4-methyl-pentanoic acid]
–	22	CC(C)CC(C(=O)O)c1cc(-c2ccc(C(F)(F)F)cc2)cc(N(C)c2ccc(C(F)(F)F)cc2)c1 (stereo not shown) [Example 19, 4-Methyl-2-{5-[methyl-(4-trifluoromethyl-phenyl)-amino]-4′-trifluoromethyl-biphenyl-3-yl}-pentanoic acid]
–	22	CC(C)CC(C(=O)O)c1cc(NC2CCCc3ccccc32)cc(-c2ccc(C(F)(F)F)cc2)c1 (stereo not shown) [Compound 34, 4-Methyl-2-[5-(1,2,3,4-tetrahydro-naphthalen-1-ylamino)-4′-trifluoromethyl-biphenyl-3-yl]-pentanoic acid]
270	–	CC(C)CCC(Nc1cc(-c2ccc(C(F)(F)F)cc2)cc(C(CC(C)C)C(=O)O)c1)c1ccc(C(F)(F)F)cc1 (stereo not shown) [Compound 31, 4-Methyl-2-{5-[4-methyl-1-(4-trifluoromethyl-phenyl)-pentylamino]-4′-trifluoromethyl-biphenyl-3-yl}-pentanoic acid]
390	–	CC(C)CCN(Cc1cc(-c2ccc(C(F)(F)F)cc2)cc(C(CC(C)C)C(=O)O)c1)Cc1cccc(C(F)(F)F)c1 (stereo not shown) [Compound 61, 4-Methyl-2-(5-{[(3-methyl-butyl)-(3-trifluoromethyl-benzyl)-amino]-methyl}-4′-trifluoromethyl-biphenyl-3-yl)-pentanoic acid]
–	21	CC(C)CC(=O)N(c1ccc(Cl)cc1)c1cc(-c2ccc(C(F)(F)F)cc2)cc(C(CC(C)C)C(=O)O)c1 (stereo not shown) [Example 23, 2-{5-[(4-Chloro-phenyl)-(3-methyl-butyryl)-amino]-4′-trifluoromethyl-biphenyl-3-yl}-4-methyl-pentanoic acid]
–	0	CC(C)CC(C(=O)O)c1cc(-c2ccc(C(F)(F)F)cc2)cc(N2CCCc3ccccc32)c1 (stereo not shown) [Compound 28, 2-[5-(3,4-Dihydro-2H-quinolin-1-yl)-4′-trifluoromethyl-biphenyl-3-yl]-4-methyl-pentanoic acid]
850	–	CC(C)CC(C(=O)O)c1cc(-c2ccc(C(F)(F)F)cc2)cc(N(C)c2ccc(C(F)(F)F)nc2)c1 (stereo not shown) [Example 15, 4-Methyl-2-{5-[methyl-(6-trifluoromethyl-pyridin-3-yl)-amino]-4′-trifluoromethyl-biphenyl-3-yl}-pentanoic acid]
150	–	CC(C)CCN(c1ccc(Cl)cc1)c1cc(-c2ccc(C(F)(F)F)cc2)cc(C(CC(C)C)C(=O)O)c1 (stereo not shown) [Example 18, 2-{5-[(4-Chloro-phenyl)-(3-methyl-butyl)-amino]-4′-trifluoromethyl-biphenyl-3-yl}-4-methyl-pentanoic acid]
190	–	CC(C)CC(C(=O)O)c1cc(-c2ccc(C(F)(F)F)cc2)cc(N(C)c2cc(C(F)(F)F)cc(C(F)(F)F)c2)c1 (stereo not shown) [Example 10, 2-{5-[(3,5-Bis-trifluoromethyl-phenyl)-methyl-amino]-4′-trifluoromethyl-biphenyl-3-yl}-4-methyl-pentanoic acid]
–	6	CC(C)C[C@@H](C(=O)O)c1cc(NCc2cc(C(F)(F)F)cc(C(F)(F)F)c2)cc(-c2ccc(C(F)(F)F)cc2)c1 [Compound 46, (R) 2-[5-(3,5-Bis-trifluoromethyl-benzylamino)-4′-trifluoromethyl-biphenyl-3-yl]-4-methyl-pentanoic acid]
